From PubChem BioAssay AID720714 (Broad Institute, 2013) come the findings set out here.

The source made the active and inactive calls. How the calls were made is not given here.

In general, AC50 refers to the concentration giving half of the maximal activity seen.

System in the first experiment: not listed separately
The experiment is described as follows: viability loss in HepG2 hepatoma cells – cell-based, plate reader, dry powder, set 3, cytotoxicity control, dose response (AID 720714). Conditions: HepG2 cytotoxicity, plate reader; at 26 µM (top of the series).
As for `COc1ccccc1N1CCN(c2ncc(C(=O)N3CCN(c4cccc(Cl)c4)CC3)c3ccccc23)CC1`, the activity change, negative = cytotoxicity was 111% (inactive).
For the molecule `Cc1cc(N2CCCC2=O)cc(C)c1S(=O)(=O)NCCOc1ccc(C(C)(C)C)cc1`, the activity change, negative = cytotoxicity is 15.4% (inactive).
Consider `CCCc1nnc(NC(=O)c2nc(S(=O)(=O)Cc3ccc(C)cc3)ncc2Cl)s1`, for which the activity change, negative = cytotoxicity was 26.2% (inactive).
Regarding `Cc1cc2c(cc(C(=O)N3CCC(C(=O)NC4CCCC4)CC3)n2Cc2c(F)cccc2Cl)o1`, the activity change, negative = cytotoxicity was 132% (inactive).
Consider `CC(=O)Nc1cccc(NC(=O)CSc2ncc(-c3ccc(Cl)cc3)n2Cc2ccco2)c1`, for which the activity change, negative = cytotoxicity is -23% (inactive).
With `CN(CC(=O)Nc1cccc(S(=O)(=O)N2CCOCC2)c1)CC(=O)Nc1ccc(Cl)c(C(F)(F)F)c1`, the activity change, negative = cytotoxicity was -15.1% (inactive).
Same read-out and setting: for `CC(=O)N1CCN(C(=O)CCc2cc(C(C)(C)C)c(O)c(C(C)(C)C)c2)CC1` the value was 84.8% (inactive).
As to `CCCOc1ccccc1C1CC(=O)Nc2cc3c(cc21)OCO3` (stereo unspecified), the activity change, negative = cytotoxicity is 73.2% (inactive).
On the same count and under the same terms, for `Nc1nonc1C(=O)NCCNCc1cc(Br)ccc1OCc1ccc(F)cc1` the value was -54.9% (inactive); for `COc1cc2ncnc(N[C@H](C)c3ccccc3)c2cc1OC`, 45.6% (inactive); for `Cc1ccc2cc(CN(CC3CCCO3)C(=O)NC3CCCCC3)c(=O)[nH]c2c1C` (stereo unspecified), 64.3% (inactive).
As to `CCOC(=O)C1CCN(C(=O)c2ccc(OCC(=O)Nc3cccc(C(F)(F)F)c3)c(OC)c2)CC1`, the activity change, negative = cytotoxicity is 11.7% (inactive).
Still for that read-out and setting: to `COc1ccc2c(c1)c(CC(=O)Nc1cc(C)ccc1C)c(C)n2C(=O)c1ccc(Cl)cc1` belongs 8.4% (inactive); to `CN(C(=O)COc1ccccc1C(=O)NCCOc1ccccc1)c1ccccc1`, -26.1% (inactive); to `Fc1ccc(-n2nnnc2-c2cnc(-c3cccs3)nc2C(F)(F)F)cc1`, 23.6% (inactive).
Regarding `O=C1CSc2ccc(C(=O)Nc3cccc(S(=O)(=O)Nc4ccc(Br)cc4)c3)cc2N1`, the activity change, negative = cytotoxicity is -35.1% (inactive).
On the same count and under the same terms, to `COc1ccc(Nc2nc(N3CCCCC3)c3ccccc3n2)cc1` belongs -24.8% (inactive).
Take `CC(C)[C@H](NC(=O)OC(C)(C)C)c1nnc(S(=O)(=O)Cc2c(F)cccc2Cl)o1`: the activity change, negative = cytotoxicity was -90.6% (inactive).
In the case of `O=c1c2ccccc2nc2n1C(CSCc1ccc(Cl)cc1Cl)CS2` (stereo unspecified), the activity change, negative = cytotoxicity is -17.2% (inactive).
Same read-out and setting: for `COc1ccc(NS(=O)(=O)c2ccc(C(=O)N3CCCCCC3)cc2)cc1` the value was 41.5% (inactive).
The same measure, in the same setting: for `CN(C)S(=O)(=O)c1cccc(NC(=O)c2cccc(S(=O)(=O)N3CCc4ccccc43)c2)c1` the value was 10.3% (inactive); for `COc1ccc(NC(=O)c2nc(S(=O)(=O)Cc3cccc(C)c3)ncc2Cl)c(OC)c1`, -19.7% (inactive).

The subject of another experiment is HepG2 cytotoxicity, plate reader. The description is as above.
Conditions: not given
For `CC(C)(C)NC(=O)CSc1nc2ccc(NC(=O)CSc3nnnn3Cc3ccccc3)cc2s1`, the concentration at half-maximal activity (AC50) was 15.5 µM.
Same read-out and setting: to `O=C(c1nnsc1S(=O)c1ccc(Cl)cc1)N1CCOCC1` (stereo unspecified) belongs 14.5 µM; to `COc1cc(CN2CCc3ccccc3C2)ccc1O`, 21.6 µM; to `CN(C)c1nc(-c2ccccn2)nnc1-c1ccccc1`, 26.5 µM.
